The nature of one data set: cells. The note with it: Homo sapiens, DLD-1, 240 h.
Data set [1] concerns the target T1, helicase domain of the Pol θ protein (Homo sapiens, UniProt O75417).
T1 construct: The helicase domain of the Pol θ protein was purified from insect protein expression system; made in house; host or cells: insect protein expression system
Put plainly: Biochemical Activity Assay (ADP Glo Assay) of Pol θ inhibitor, ATPase activity. For orientation: ADP-Glo first removes unused ATP, then detects ADP through luciferase.

A further data set can be described thus: Solubility assay. The note with it: pH 7.4, aqueous buffer, kinetic from dmso stock.
Data set [2] can be described thus: Metabolic stability of mouse liver microsome assay. The note with it: liver microsomes, pH 7.4. In general terms: Liver microsomes are a subcellular fraction often used to study metabolism.
Procedure: (§1) a) Phosphate buffer solution (PBS): 100 mM, pH=7.4±0.1.
(§2) 73.21 g of dipotassium phosphate trihydrate K2HPO4·3H2O (MW=228.22) and 10.78 g of potassium dihydrogen phosphate KH2PO4 (MW=136.09) were dissolved in 4000 mL of pure water, with pH adjusted to 7.4 ± 0.1 using phosphoric acid or potassium hydroxide.
(§3) b) Microsome working solution: 1.0 mg/mL.
(§4) The purchased mouse liver microsomes (IPHASE, Cat. No.: 0121E1.01, Lot. No.: 22F001) were of 20 mg/mL (10 mg, 0.5 mL), with 225 µL added to 4275 µL of PBS solution to prepare 1.0 mg/mL microsome working solution.
(§5) (Note whether the precipitation occurred) • III, 200 µL of the 40 mM NADPH stock solution, 2.0 mL of the 12 mM magnesium chloride stock solution, and 1.80 mL of the PBS solution were used to prepare the working solution of the NADPH regeneration system, containing the 2 mM NADPH solution and the 6 mM magnesium chloride mixture.
(§6) d) Stop solution: containing 200 ng/mL tolbutamide acetonitrile solution. • I, 6.006 mg of tolbutamide (MV=270.35, 99.9%) solids were weighed, and 30 mL of acetonitrile was added to prepare the 200 µg/mL of tolbutamide stock solution. • II, 500 mL of acetonitrile was added to 500 µL of the 200 µg/mL tolbutamide stock solution to obtain the tolbutamide acetonitrile solution with a concentration of 200 ng/mL.
(§7) e) Test sample/reference working solution: 100 µM test sample/reference working solution • I, 1 mL of 1.0 mg/mL testosterone (MV=288.42) solution was purchased, and 155.8 µL of ACN was added to prepare a testosterone stock solution with a concentration of 3 mM. • II, 1450 µL of acetonitrile was added to 50 µL of the 3 mM testosterone stock solution to prepare the 100 µM testosterone working solution. • III, 6.98 mg of propafenone hydrochloride was weighed, and 1.8433 mL of acetonitrile was added to dissolve the propafenone hydrochloride; and 5.67 mg of diclofenac sodium was weighed, and 1.783 mL of acetonitrile was added to dissolve the diclofenac sodium. 10 mM propafenone stock solution and 10 mM diclofenac stock solution were prepared respectively. • IV, 10 µL of the propafenone stock solution and 10 mL of the diclofenac stock solution were each added with 990 µL of acetonitrile to prepare 100 µM propafenone working solution and 100 µM diclofenac working solutions.
(§8) • a) 8 incubation plates were prepared, named T0, T5, T15, T30, T45, T60, Blank60 and NCF60, respectively. • b) 100 µL of microsome working solution was added to each of T0, T5, T15, T30, T45, T60, Blank60 and NCF60; 2 µL of the test (reference) working solution was added to each of T0, T5, T15, T30, T45, T60 and NCF60; and 2 µL of acetonitrile was added to Blank60. • c) T5, T15, T30, T45, T60, and Blank60 were pre-incubated in a 37°C water bath for 10 minutes. • d) 600 µL of the stop solution was added to the sample T0 to stop the reaction; and 98 µL of phosphate buffer solution (PBS) was added to NCF60, and NCF60 samples without the NADPH regeneration system were taken as negative control. • e) 98 µL of the working solution of the NADPH regeneration system was supplemented to the sample T0 that is stopped in the previous step; and after pre-incubation, 98 µL of the working solution of the NADPH regeneration system was added to each of T5, T15, T30, T45, T60, and Blank60 to initiate the reaction.
A short description of data set [3]: Mouse PK assay after oral administration. The note with it: for Time to peak / Area under curve (0-t; hr * ng/mL) / Peak concentration: mice, oral, administration dose 30 mg/kg.
Procedure: The objective of this experiment was to study the pharmacokinetics of the test compound in ICR mice (male, 18-22 g, 4-6 weeks old, Beijing Vital River Laboratory Animal Technology Co., Ltd.) after oral administration. The specific experimental procedures were as follows: • 1) The compound was dissolved in 5% DMSO + 40% PEG + 20% (10% TPGS) in water + 35% water at a concentration of 0.5 mg/mL, and then administered orally (5 mL/Kg); and • 2) Blood samples were collected, with 0.03 mL collected at 0.25 h, 0.5 h, 1 h, 2 h, 4 h, 8 h, and 24 h, and EDTA-K2 was added. […] The blood was centrifuged for 5 min at 4000 g in a centrifuge at 4°C to collect plasma. Plasma samples were aliquoted into clean polyethylene microcentrifuge tubes and then stored in a freezer at -75 ± 15°C before analysis; and • 3) Samples were analyzed, and the concentration of the compound in each plasma sample was analyzed by LC-MS/MS. For plasma measurements, pharmacokinetic parameters were calculated using WinNonlin (PhoenixTM, version 8.3) or other similar software.
For data set [4] the following is noted: mouse, microsomes.
Procedure: as §1, §2, §3, §4, §5, §6, §7, §8
The mark [5] stands for this setting: male, ICR, mouse, plasma, po, 30 mg/kg.

Converted amounts (≈) assume the structure as drawn. Like-named read-outs stand apart in the source and are kept apart here.

As usually defined, the IC50 is the midpoint of a concentration-inhibition curve. The term solubility denotes the dissolved amount per volume that the medium holds. Read a low solubility as a poorly soluble substance. In general, half-life refers to the time needed for the level to fall by half in the phase considered. The MRT is the average time that molecules of a dose stay in the body.

T1 sequence (O75417 102-554 limits assumed): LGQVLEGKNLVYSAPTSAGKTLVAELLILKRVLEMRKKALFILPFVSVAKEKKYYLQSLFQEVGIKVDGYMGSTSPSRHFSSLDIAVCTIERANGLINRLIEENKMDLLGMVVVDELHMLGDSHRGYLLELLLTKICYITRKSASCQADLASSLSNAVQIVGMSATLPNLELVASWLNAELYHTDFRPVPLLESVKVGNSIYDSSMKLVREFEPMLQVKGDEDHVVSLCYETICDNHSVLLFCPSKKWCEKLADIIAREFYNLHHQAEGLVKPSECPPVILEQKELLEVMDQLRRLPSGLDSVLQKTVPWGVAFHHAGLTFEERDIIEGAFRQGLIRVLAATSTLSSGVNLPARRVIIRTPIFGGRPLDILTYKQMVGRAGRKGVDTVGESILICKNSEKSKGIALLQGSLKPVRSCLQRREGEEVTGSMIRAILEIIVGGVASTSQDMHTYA
Procedure for Solubility assay: 1) Prepare 0.1 M Na2PO4 buffer (pH 7.4): 11 g of Na2HPO4 (FW: 141.96) and 3.5 g of NaH2PO4_2H2O (FW: 156.03) were added to 1L of Mili-Q water, with pH adjusted to 7.4 using phosphoric acid or sodium hydroxide. 2) 10 µL of the compound to be tested (concentration: 10 mM in DMSO) was added to 990 µL of Na2PO4 buffer (final DMSO concentration: 1%) prepared in Step 1). 3) The sample tube was shaken at room temperature for 2 hours (1000 rpm/min). 4) Prepare the calibration curve: a) Prepare 300 µM spiking solution (SS): 6 µL (10 mM in DMSO) of the stock solution of the compound to be tested was added to 194 µL of MeOH/ACN (4:1); and b) Draw the standard curve.
5) The samples were centrifuged (10 min, 12,000 rpm) to precipitate insoluble particles. The supernatant was filtered with a 0.22 µm filter membrane, and then transferred to a new centrifuge tube. 6) The supernatant was diluted 10-fold with 100 mM buffer. The supernatant (10 µL) was added to the buffer (100 mM, 90 µL) and diluted 10-fold. 7) The sample was prepared under LC-MS/MS (API 4000) detection.
10 µL of the sample (10-fold dilution) and a standard curve sample were added to 400 µL of (MeOH: ACN=1:1) solution, and detected on the instrument, and the solubility value was calculated according to the standard curve.

As for `COc1cnc(Cl)cc1-c1cc(C)ncc1C(=O)Nc1nc2cnc(-c3c(C)noc3C)cc2s1` [Example 155], in the data set “cells” (read-out: Cell viability assay IC50 (nM)), the IC50 was 19.2 nM. For the same molecule, the IC50 in data set [1] (read-out: Biochemical assay IC50; ADP-Glo assay, ATPase activity of Pol θ helicase domain, ssDNA substrate) is 5.75 nM. The solubility in “Solubility assay” (0.1 m sodium phosphate buffer) stood at 7.81 µM (≈ 3.96 µg/mL). Moreover, the half-life at 1 µM in data set [2] is 11.6 h. Further, the “Time to peak” value in data set [3] was 1.0 h. Further, in data set [3] (plasma), the “Area under curve (0-t; hr * ng/mL)” value worked out at 321.917 µg·h/mL and the “Peak concentration” value stood at 43083 ng/mL. In addition, in data set [3] (mouse, plasma, po, 30 mg/kg), the MRT came to 4.56 h and the half-life is 2.26 h.
On to `COc1cnc(Cl)c(F)c1-c1cc(C)ncc1C(=O)Nc1nc2cnc(-c3c(C)nnn3C)c(F)c2s1` [Example 217], for which the IC50 in “cells” (read-out: Cell viability assay IC50 (nM), CTG assay, CellTiter Glo, read on Day 10, cell line not given) was below 1.52 nM. In data set [1] (ADP-Glo assay, ATPase activity of Pol θ helicase domain, ssDNA substrate; read-out: Biochemical assay IC50), the IC50 was determined as 3.63 nM. The molecule also registered a solubility at 2 h in “Solubility assay” (phosphate buffer) of 82.6 µM (≈ 44.8 µg/mL). Moreover, in data set [3] (setting [5]), the MRT came out at 3.95 h, the bioavailability worked out at 259% and the half-life is 2.16 h. Besides, in data set [3], the “Time to peak” value is 0.67 h. In addition, in data set [3] (plasma), the “Area under curve (0-t; hr * ng/mL)” value turned out to be 852.39 µg·h/mL and the “Peak concentration” value was 156130 ng/mL. Also, the “Half-life (T1/2, min)” value in data set [4] was “∞”.

For the origin of these results see EP4585599A1, “NITROGEN-CONTAINING FUSED RING COMPOUND, INTERMEDIATE THEREOF, PREPARATION METHOD THEREFOR AND USE THEREOF” (Hangzhou Synrx Therapeutics Biomedical Technology Co., Ltd., priority 2022, dated 2024).
